Structures are written as SMILES.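 Values below derive from 48-hour exposures of cells grown in 96-well plates, with endpoints linearly interpolated between the two concentrations bracketing the appropriate inhibition level. TGI marks complete inhibition of growth.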

In PubChem BioAssay (NCI) one finds TGI data, which are given here for 13 compounds.

Among the test systems are HCC-2998 colon; MDA-MB-435; A498 renal; SF-268 CNS; MDA-MB-231 breast; SF-295 CNS; OVCAR-3 ovarian; SW-620 colon; OVCAR-5 ovarian; NCI/ADR-RES ovarian; OVCAR-8 ovarian; K-562 leukemia; MCF7 breast; TK-10 renal.
Test in all cases: inhibition of tumour cell growth, NCI panel, 48 h

For the compound `CC(=O)NC1C(OCc2ccccc2)OC(CO)C(O)C1OCC(=O)N1CCCC1C(=O)NC(CCC(=O)NCCCCCNc1c2ccccc2nc2cccc([N+](=O)[O-])c12)C(N)=O` (configuration not stated), the TGI is 0.027 µM in the experiment on HCC-2998 colon; 0.033 µM with MDA-MB-435; 0.345 µM in the experiment with A498 renal; 0.0966 µM in the experiment on SF-268 CNS; 0.0426 µM in the experiment on MDA-MB-231 breast; 0.724 µM with SF-295 CNS. Also, the TGI was determined as 0.142 µM with OVCAR-3 ovarian; 0.0424 µM in the experiment with SW-620 colon; 0.06 µM in the experiment on OVCAR-5 ovarian; 1.09 µM in the experiment with NCI/ADR-RES ovarian; 0.0817 µM in the experiment on OVCAR-8 ovarian; 0.0475 µM with K-562 leukemia. Moreover, the TGI in the experiment with MCF7 breast came out at 0.502 µM; in the experiment on TK-10 renal, 0.762 µM.

For the compound `CC(=O)Nc1nnc(S(=O)(=O)NC(=S)Nc2ccc(Cl)cc2)s1`, the TGI in the experiment on HCC-2998 colon, with MDA-MB-435, in the experiment with A498 renal, in the experiment on SF-268 CNS, with MDA-MB-231 breast and in the experiment with SF-295 CNS was over 100 µM in each case. For the same compound, the TGI with OVCAR-3 ovarian, with SW-620 colon, in the experiment on OVCAR-5 ovarian, in the experiment on NCI/ADR-RES ovarian, in the experiment on OVCAR-8 ovarian and with K-562 leukemia was over 100 µM in each case. Also, the TGI with MCF7 breast and in the experiment with TK-10 renal was over 100 µM in each case.

With `S=C(Nc1cccc(C2(N3CCCCC3)CCCCC2)c1)Nc1cccc(C2(N3CCCCC3)CCCCC2)c1`, the TGI is 6.07 µM in the experiment with HCC-2998 colon; 30.6 µM in the experiment with MDA-MB-435; 35.1 µM in the experiment with A498 renal; over 100 µM with SF-268 CNS; 32.5 µM with MDA-MB-231 breast; over 100 µM in the experiment with SF-295 CNS. For the same compound, the TGI was 50.5 µM in the experiment with OVCAR-3 ovarian; over 100 µM in the experiment on SW-620 colon; over 100 µM with OVCAR-5 ovarian; over 100 µM with NCI/ADR-RES ovarian; 59.2 µM in the experiment on OVCAR-8 ovarian; 27.5 µM in the experiment on K-562 leukemia. In addition, the TGI came to 64.1 µM in the experiment with MCF7 breast and 7.39 µM in the experiment with TK-10 renal.

As for `CNc1ncnc2c1cnn2Cc1cn(CCCCO)nn1`, the TGI with HCC-2998 colon, in the experiment on MDA-MB-435, in the experiment with A498 renal, with SF-268 CNS, with MDA-MB-231 breast and in the experiment with SF-295 CNS was over 100 µM in each case. Besides, the TGI in the experiment on OVCAR-3 ovarian, with SW-620 colon, in the experiment with OVCAR-5 ovarian, in the experiment with NCI/ADR-RES ovarian, in the experiment on OVCAR-8 ovarian and with K-562 leukemia was over 100 µM throughout. Moreover, the TGI with MCF7 breast and in the experiment on TK-10 renal was over 100 µM throughout.

Turning to `C=CC[C@H]1[C@H](O[Si](C)(C)C(C)(C)C)C=CC(=O)[C@@H]1CC(=O)OCC`, the TGI amounted to 25.5 µM in the experiment on HCC-2998 colon; 26.4 µM with MDA-MB-435; 26.6 µM in the experiment on A498 renal; 28.9 µM with SF-268 CNS; 27.6 µM in the experiment with MDA-MB-231 breast; 27.8 µM in the experiment with SF-295 CNS. Moreover, the TGI in the experiment with OVCAR-3 ovarian came to 26.4 µM; in the experiment with SW-620 colon, 33 µM; in the experiment on OVCAR-5 ovarian, 27.1 µM; with NCI/ADR-RES ovarian, 24.4 µM; in the experiment with OVCAR-8 ovarian, 31.6 µM; with K-562 leukemia it was 20.4 µM. The TGI was found to be 23.7 µM with MCF7 breast and 28 µM in the experiment with TK-10 renal.

`Cc1ccc(-n2cc(-c3ccc(Cl)cc3)c(C#N)c2N)cc1`: the TGI in the experiment on HCC-2998 colon came out at 28.4 µM; with MDA-MB-435, 32.7 µM; with A498 renal, 35.6 µM; with SF-268 CNS, 42.3 µM; with MDA-MB-231 breast, 28.7 µM; in the experiment with SF-295 CNS it was 33.8 µM. The TGI in the experiment with OVCAR-3 ovarian came out at 29.1 µM; in the experiment with SW-620 colon, 26 µM; in the experiment with OVCAR-5 ovarian it was 30.6 µM; in the experiment with NCI/ADR-RES ovarian it was 39.1 µM; in the experiment with OVCAR-8 ovarian, 30.5 µM; in the experiment with K-562 leukemia, 47.9 µM. The TGI in the experiment with MCF7 breast and in the experiment on TK-10 renal was 28.2 µM each time.

For `O=c1c(Sc2ncccn2)c(Sc2ncccn2)cnn1CCl`, the TGI in the experiment with HCC-2998 colon was 24 µM; with MDA-MB-435, 3.87 µM; in the experiment with A498 renal it was 36.3 µM; with SF-268 CNS, 9.57 µM; in the experiment with MDA-MB-231 breast, 19 µM; with SF-295 CNS, 30 µM. Also, the TGI in the experiment with OVCAR-3 ovarian came out at 10.8 µM; with SW-620 colon, 17.9 µM; with OVCAR-5 ovarian, 21.1 µM; in the experiment on NCI/ADR-RES ovarian it was 24.4 µM; in the experiment with OVCAR-8 ovarian, 7.53 µM; with K-562 leukemia, 20.5 µM. The TGI in the experiment with MCF7 breast is 11.6 µM; with TK-10 renal, 11.4 µM.

`NCCC1([N+](=O)[O-])CCNCC1`: the TGI in the experiment with HCC-2998 colon, with MDA-MB-435, in the experiment on A498 renal, with SF-268 CNS, in the experiment on MDA-MB-231 breast and in the experiment with SF-295 CNS was over 100 µM in each case. For the same compound, the TGI with OVCAR-3 ovarian, with SW-620 colon, in the experiment with OVCAR-5 ovarian, in the experiment with NCI/ADR-RES ovarian, in the experiment with OVCAR-8 ovarian and in the experiment on K-562 leukemia was over 100 µM throughout. Further, the TGI in the experiment on MCF7 breast and with TK-10 renal was over 100 µM throughout.

With `CCOP(=O)(OCC)C(=C1C=C(C(C)(C)C)C(=O)C(C(C)(C)C)=C1)P(=O)(OCC)OCC`, the TGI in the experiment with HCC-2998 colon, in the experiment with MDA-MB-435, in the experiment with A498 renal, in the experiment on SF-268 CNS, in the experiment on MDA-MB-231 breast and with SF-295 CNS was over 10 µM throughout. For the same compound, the TGI in the experiment on OVCAR-3 ovarian was over 5.55 µM; with SW-620 colon, 3.55 µM; with OVCAR-5 ovarian, over 10 µM; with NCI/ADR-RES ovarian, over 10 µM; in the experiment with OVCAR-8 ovarian, over 10 µM; with K-562 leukemia it was over 7.45 µM. Besides, the TGI was over 10 µM with MCF7 breast and over 7.39 µM in the experiment on TK-10 renal.

On to `Nc1cc(N)c(N=Nc2cccc3c(S(=O)(=O)O)cccc23)cc1N=Nc1cc([N+](=O)[O-])ccc1O`, for which the TGI in the experiment with HCC-2998 colon is 79.9 µM; with MDA-MB-435 it was over 100 µM; in the experiment on A498 renal, over 100 µM; with SF-268 CNS, 54.8 µM; in the experiment on MDA-MB-231 breast, over 100 µM; in the experiment with SF-295 CNS, over 100 µM. Further, the TGI was over 100 µM in the experiment with OVCAR-3 ovarian; over 100 µM with SW-620 colon; 93.9 µM in the experiment with OVCAR-5 ovarian; 93.2 µM with NCI/ADR-RES ovarian; over 100 µM in the experiment on OVCAR-8 ovarian; over 100 µM with K-562 leukemia. Besides, the TGI in the experiment with MCF7 breast and in the experiment on TK-10 renal was over 100 µM throughout.

For the compound `CC1=C(C(=O)NC(C)(C)C)CC(C(=O)NC(C)(C)C)C(C)N1` (configuration not stated), the TGI in the experiment with HCC-2998 colon, in the experiment with MDA-MB-435, with A498 renal, in the experiment on SF-268 CNS, in the experiment on MDA-MB-231 breast and with SF-295 CNS was over 100 µM each time. Moreover, the TGI in the experiment on OVCAR-3 ovarian, in the experiment on SW-620 colon, with OVCAR-5 ovarian, in the experiment with NCI/ADR-RES ovarian, with OVCAR-8 ovarian and in the experiment with K-562 leukemia was over 100 µM throughout. Further, the TGI with MCF7 breast and in the experiment with TK-10 renal was over 100 µM in each case.

`C#CC(O)Cc1ccc(OC)c2occc12` (configuration not stated): the TGI with HCC-2998 colon, in the experiment on MDA-MB-435, in the experiment on A498 renal, with SF-268 CNS, in the experiment with MDA-MB-231 breast and in the experiment with SF-295 CNS was over 100 µM each time. In addition, the TGI with OVCAR-3 ovarian, in the experiment on SW-620 colon, with OVCAR-5 ovarian, in the experiment with NCI/ADR-RES ovarian, in the experiment with OVCAR-8 ovarian and with K-562 leukemia was over 100 µM throughout. Further, the TGI with MCF7 breast and in the experiment with TK-10 renal was over 100 µM throughout.

On to `CSc1nc(-c2ccc(Cl)cc2)c(C#N)c(=O)[nH]1`, for which the TGI with HCC-2998 colon, in the experiment with MDA-MB-435, with A498 renal, in the experiment on SF-268 CNS, with MDA-MB-231 breast and in the experiment on SF-295 CNS was over 100 µM in each case. Also, the TGI in the experiment with OVCAR-3 ovarian, in the experiment on SW-620 colon, with OVCAR-5 ovarian, with NCI/ADR-RES ovarian, in the experiment on OVCAR-8 ovarian and in the experiment on K-562 leukemia was over 100 µM throughout. The TGI in the experiment on MCF7 breast and in the experiment with TK-10 renal was over 100 µM in each case.
